Laboratory results published in ChEMBL document CHEMBL1201862, “PubChem BioAssay data set” (2004).
Activity calls are given as the source filed them. Unless noted, no cut-off for these calls is given here.

What was measured:
[1] = target: Female germline-specific tumor suppressor gld-1 (Caenorhabditis elegans, UniProt Q17339); experiment: inhibitors of GLD-1 binding to TGE RNA, dose response, biochemical, fluorescence polarization, C. elegans (AID 2802);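 note: fluorescence polarization of labeled TGE RNA bound by purified gld-1 protein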
[2] = target: T1, Zinc finger protein mex-5 (Caenorhabditis elegans, UniProt Q9XUB2); experiment: MEX-5/TCR-2 RNA interaction inhibitors, dose response, biochemical, C. elegans, fluorescence polarization (AID 1960)
T1 sequence (Q9XUB2 whole entry): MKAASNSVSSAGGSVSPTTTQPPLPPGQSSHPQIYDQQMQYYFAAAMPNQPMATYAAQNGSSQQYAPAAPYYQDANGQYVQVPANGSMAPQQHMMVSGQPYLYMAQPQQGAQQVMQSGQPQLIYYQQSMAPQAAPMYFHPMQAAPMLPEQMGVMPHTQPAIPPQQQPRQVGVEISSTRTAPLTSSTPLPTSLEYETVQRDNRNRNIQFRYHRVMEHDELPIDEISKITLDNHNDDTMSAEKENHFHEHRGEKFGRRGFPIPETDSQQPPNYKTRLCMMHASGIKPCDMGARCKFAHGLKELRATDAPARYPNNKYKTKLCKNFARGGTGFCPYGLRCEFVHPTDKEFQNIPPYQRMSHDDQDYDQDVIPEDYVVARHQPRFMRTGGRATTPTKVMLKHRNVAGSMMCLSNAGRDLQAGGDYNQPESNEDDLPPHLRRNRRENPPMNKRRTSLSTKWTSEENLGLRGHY

[3] = target: T2, RNA-binding protein pos-1 (Caenorhabditis elegans, UniProt G5EF15); experiment: inhibitors of POS-1/mex-3 RNA binding, dose response, biochemical, fluorescence polarization (AID 1964);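 note: purified POS-1 fused to maltose binding protein made in E. coli; potency of compounds blocking POS-1 binding to fluorescent RNA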
T2 sequence (G5EF15 whole entry): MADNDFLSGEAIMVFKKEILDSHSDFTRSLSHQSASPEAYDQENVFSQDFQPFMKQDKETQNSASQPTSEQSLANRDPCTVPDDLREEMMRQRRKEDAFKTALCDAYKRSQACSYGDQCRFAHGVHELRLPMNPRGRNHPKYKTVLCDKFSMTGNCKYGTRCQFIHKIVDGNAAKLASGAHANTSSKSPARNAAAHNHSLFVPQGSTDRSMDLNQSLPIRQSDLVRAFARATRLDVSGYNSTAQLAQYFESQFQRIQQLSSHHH

Protein Rev = Protein Rev (Human immunodeficiency virus type 1 group M subtype B (isolate HXB2)(HIV-1), UniProt P04618); experiment: inhibitors of Rev binding to RRE RNA, dose response, biochemical, fluorescence polarization, HIV-1 (AID 434976); design: species or system Human immunodeficiency virus 1
[4] = cytotoxicity in BJeHLT fibroblasts, dose response, counter-screen for Ras selective lethality project, BJeHLT cells, dry powder (AID 493052); type: functional, cell-based; conditions: Homo sapiens
[5] = viability loss in HRASV12 DRD fibroblasts, dose response, cell-based, DRD BJ fibroblasts, dry powder (AID 493049); type: functional
[6] = viability loss in BJeLR (HRASV12) cells, primary screen, Ras selective lethality project, cell-based, Alamar Blue, dry powder (AID 493045); type: functional
[7] = cytotoxicity in BJeH fibroblasts, dose response, counter-screen for Ras selective lethality project, BJeH cells, dry powder (AID 493054); type: functional, cell-based
Troponin, cardiac muscle = Troponin, cardiac muscle (Homo sapiens, UniProt P19429+P45379+P63316); experiment: Fluorescence-based biochemical high throughput dose response assay for activators of the calcium sensitivity of cardiac Regulated Thin Filaments (RTF). [Related pubchem assays (depositor defined):AID493008, AID493018, AID504382, AID504383]; type: protein-complex assay

Sequence of Protein Rev (P04618 whole entry): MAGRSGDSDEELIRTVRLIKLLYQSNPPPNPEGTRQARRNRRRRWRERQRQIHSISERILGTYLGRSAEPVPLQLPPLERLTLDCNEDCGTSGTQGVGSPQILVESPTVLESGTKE
Sequence of Female germline-specific tumor suppressor gld-1 (Q17339 whole entry): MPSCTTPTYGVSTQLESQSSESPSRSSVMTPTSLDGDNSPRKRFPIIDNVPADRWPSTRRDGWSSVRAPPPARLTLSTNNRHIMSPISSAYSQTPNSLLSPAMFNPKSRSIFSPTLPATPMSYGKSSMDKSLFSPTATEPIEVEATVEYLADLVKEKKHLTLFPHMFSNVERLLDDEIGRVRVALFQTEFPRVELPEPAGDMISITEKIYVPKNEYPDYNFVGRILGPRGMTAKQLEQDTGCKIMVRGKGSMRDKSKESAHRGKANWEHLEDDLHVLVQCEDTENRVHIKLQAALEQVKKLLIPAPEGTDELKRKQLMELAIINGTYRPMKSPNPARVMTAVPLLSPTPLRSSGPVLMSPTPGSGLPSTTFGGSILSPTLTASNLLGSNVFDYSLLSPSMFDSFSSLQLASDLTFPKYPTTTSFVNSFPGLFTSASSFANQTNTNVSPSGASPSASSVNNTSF

EC50 (Troponin, cardiac muscle)	SMILES	IC50 [1]	EC50 [2]	EC50 [3]	IC50 (Protein Rev)	AC50 [4]	AC50 [5]	AC50 [6]	AC50 [7]
	CCN1C/C(=C/c2cccs2)c2nc3ccccc3c(C(=O)O)c2C1	9410 nM (active)	31900 nM (active)	39200 nM (active)	17000 nM (not active)				
	COc1ccc(N(C(=O)CCl)C(C(=O)NC2CCCCC2)c2cccs2)cc1Cl (stereo not drawn)					270 nM (active)	120 nM (active)	113 nM (active)	455 nM (active)
	COc1ccc(N(C(=O)CCl)C(C(=O)NCn2nnc3ccccc32)c2cccs2)cc1Cl (stereo not drawn)					242 nM (active)	97 nM (active)	102 nM (active)	432 nM (active)
11100 nM (inactive)	CCOC(=O)c1sc(N)c(C#N)c1COC(=O)CNC(=O)c1cc(OC)c(OC)c(OC)c1								
